Like-named read-outs stand apart in the source and are kept apart here.
Columns and labels:
[1] = literature, Green et al. 1985; cited from earlier work
[2] = in vivo; cited from earlier work
[3] = rat, in vivo; cited from earlier work
[4] = in vivo, 5 min
Protocol: (§1) The procedures used for determining biodistribution are as follows.
(§2) Guinea Pigs--The guinea pigs are anesthetized and the technetium complex is injected into the jugular vein after a cutdown. The animals are sacrificed after 5 minutes and the organs removed and counted as with the rats.
(§3) For guinea pigs, significant heart uptake is determined if the percentage of technetium in the heart is greater than 0.5% and the heart/blood ratio is greater than 1.

[5] = Biodistribution of Tc-99m complexes in guinea pigs (heart uptake, heart/blood); conditions: 5 minutes, Tc-99m complex; for 5 Minute Guinea Pig % HT Uptake: jugular vein injection
Protocol: as §1, §2, §3

| Compound | 5 Minute Guinea Pig % HT Uptake [5] [%] | also measured |
| --- | --- | --- |
| COc1ccc(O)c(C=NCC(C)(CN=Cc2cc(OC)ccc2O)CN=Cc2cc(OC)ccc2O)c1 (centres unmarked) [1,1,1-tris (5-methoxysalicyl-aldiminomethyl) ethane] | – | overall charge [1]: no overall charge; washout from the heart (images of a dog's heart) [2]: washed out quickly from the heart; washout from the heart (biodistribution data in rats) [3]: washed out quickly from the heart |
| CC(=NCC(C)(CN=C(C)c1cc(F)ccc1O)CN=C(C)c1cc(F)ccc1O)c1cc(F)ccc1O (centres unmarked) [R5=H, R6=H, R7=F, R8=H, R3=CH3, R4=CH3, 1',1',1'-tris(5-fluoro-2-hydroxyacetophenoiminemethyl)ethane] | – | 5 Minute Guinea Pig % HT Uptake [4]: 0.66% |
| COCCOCC(CN=Cc1ccccc1O)(CN=Cc1ccccc1O)CN=Cc1ccccc1O (centres unmarked) [phenol, 2,2'-[[2-[[[(2-hydroxyphenyl)methylene]amino]methyl]-2-methoxyethoxymethyl-1,3-propanediyl]bis(nitrilomethylidyne)]bis-] | 1.01 | – |
| COCC(CN=Cc1ccccc1O)(CN=Cc1ccccc1O)CN=Cc1ccccc1O (centres unmarked) [phenol, 2,2'-[[2-[[[(2-hydroxyphenyl)methylene]amino]methyl]-2-methoxymethyl-1,3-propanediyl]bis(nitrilomethylidyne)]bis-] | 1.44 | – |
| Oc1ccccc1C=NCC(CN=Cc1ccccc1O)(CN=Cc1ccccc1O)COCc1ccccc1 (centres unmarked) [phenol, 2,2'-[[2-[[[(2-hydroxyphenyl)methylene]amino]methyl]-2-phenylmethoxymethyl-1,3-propanediyl]bis(nitrilomethylidyne)]bis-] | 1.60 | – |
| C=CCOCC(CN=Cc1ccccc1O)(CN=Cc1ccccc1O)CN=Cc1ccccc1O (centres unmarked) [phenol, 2,2'-[[2-[[[(2-hydroxyphenyl)methylene]amino]methyl]-2-propenyloxymethyl-1,3-propanediyl]bis(nitrilomethylidyne)]bis-] | 1.09 | – |
| CCCOCC(CN=Cc1ccccc1O)(CN=Cc1ccccc1O)CN=Cc1ccccc1O (centres unmarked) [phenol, 2,2'-[[2-[[[(2-hydroxyphenyl)methylene]amino]methyl]-2-propoxymethyl-1,3-propanediyl]bis(nitrilomethylidyne)]bis-] | 1.48 | Guinea Pig Heart/Blood Ratio [5]: 18 |
| CCC(=NCC(C)(CN=C(CC)c1ccccc1O)CN=C(CC)c1ccccc1O)c1ccccc1O (centres unmarked) [phenol, 2,2'-[[2-[[[(2-hydroxyphenyl)propylene]amino]methyl]-2-methyl-1,3-propanediyl]bis(nitrilopropylidyne)]bis-] | 0.76 | – |
| Oc1ccccc1C=NCC(CN=Cc1ccccc1O)(CN=Cc1ccccc1O)COc1cccc2ccccc12 (stereo not drawn) [phenol, 2,2'[[2-[[[(2-hydroxyphenyl)methylene]amino]methyl]-2-α-napthoxymethyl-1,3-propanediyl]bis(nitrilomethylidyne)]bis-] | 0.72 | – |
| CCCCCCOCC(CN=Cc1ccccc1O)(CN=Cc1ccccc1O)CN=Cc1ccccc1O (centres unmarked) [phenol, 2,2,'-[[2-[[[(2-hydroxyphenyl)methylene]amino]methyl]-2-hexyloxymethyl-1,3-propanediyl]bis(nitrilomethylidyne)]bis-] | 1.19 | – |
| phenol, 2,2'-[[2-[[[(2-hydroxyphenyl)methylene]amino]methyl]-2-(4-methoxy-4-methyl)pentyl-1,3-propanediyl]bis(nitrilomethylidyne)]bis- | 1.61 | – |

Source: US5071965A, “Novel TC-99M complexes” (Mallinckrodt Medical, Inc., priority 1989, dated 1991)
